Data published in patent US20250113826A1, “AN AGROCHEMICAL COMBINATION” (UPL LIMITED, priority 2021, published 2025).

Tests used:
Type in all cases: in vivo
weedy Glycine max = experiment: Greenhouse post-emergence herbicidal efficacy on weedy Glycine max
Description: (§1) Evaluation of Post-Emergence Herbicidal Activity of Combinations Under Field Conditions
(§2) Methodology: Greenhouse trials were carried out to evaluate the efficacy of the combination of L-glufosinate and the other herbicides on weeds such as Glycine max, Spermacoce verticilata, Eleusine indica, Brachiaria decumbens. The soil used was sandy clay loam—Sand: 68.0%; Silt: 8.0%; Clay: 24.0%. All treatments were conducted in 4 replications per treatment with a spray volume of […].
(§3) The expected efficacy of a combination of L-glufosinate and the other herbicides was calculated using the well-established Colby method. Any difference between the observed and “expected” efficacy could be attributed to synergy between the two compounds.
(§4) In the Colby method, the expected (or predicted) response of a combination of herbicides is calculated by taking the product of the observed response for each individual component of the combination when applied alone, divided by 100, and subtracting this value from the sum of the observed response for each component when applied alone. An unexpected enhancement in efficacy of the combination is then determined by comparing the observed response of the combination to the expected (or predicted) response as calculated from the observed response of each individual component alone. If the observed response of the combination is greater than the expected (or predicted) response, or stated conversely, if the difference between the observed and expected response is greater than zero, then the combination is said to be synergistic or unexpectedly effective (Colby, S. R., Weeds, 1967(15), p. 20-22). The Colby method requires only a single dose of each herbicide applied alone and the mixture of both doses. The formula used to calculate the expected efficacy (EE) which was compared with the observed efficacy (OE) to determine the efficacy of the present invention is explained hereinbelow:
(§5) The expected efficacy for a combination of two active ingredients is as follows:
(§6) The expected efficacy for a combination of three active ingredients is as follows:
(§7) Where, • A=Observed efficacy of active ingredient A at the same concentration as used in the mixture. • B=Observed efficacy of the active ingredient B at the same concentration as used in the mixture. • C=Observed efficacy of the active ingredient C at the same concentration as used in the mixture.

Brachiaria decumbens = experiment: Greenhouse post-emergence herbicidal efficacy on Brachiaria decumbens
Description: as §1, §2, §3, §4, §5, §6, §7

Eleusine indica = experiment: Greenhouse post-emergence herbicidal efficacy on Eleusine indica
Description: as §1, §2, §3, §4, §5, §6, §7

Spermacoce latifolia = experiment: Greenhouse post-emergence herbicidal efficacy on Spermacoce latifolia; details: L-glufosinate 150, imazethapyr 75, carfentrazone 7.5 g a.i./h
Description: as §1, §2, §3, §4, §5, §6, §7

Amaranthus viridus = experiment: Greenhouse post-emergence herbicidal efficacy on Amaranthus viridus; details: Table 11, 3 DAA, L-glufosinate 150, imazapic and imazapyr 31.5 + 10.5 g a.i./h
Description: as §1, §2, §3
In the Colby method, the expected (or predicted) response of a combination of herbicides is calculated by taking the product of the observed response for each individual component of the combination when applied alone, divided by 100, and subtracting this value from the sum of the observed response for each component when applied alone. An unexpected enhancement in efficacy of the combination is then determined by comparing the observed response of the combination to the expected (or predicted) response as calculated from the observed response of each individual component alone. […]

Borreria verticillata = experiment: Greenhouse post-emergence herbicidal efficacy on Borreria verticillata; details: L-glufosinate 150, imazapic and imazapyr 31.5 + 10.5 g a.i./h
Description: as §1, §2, §3, §4, §5, §6, §7

[1] = Table 9, 21 DAA, L-glufosinate 150, saflufenacil 30, 2,4 D 228 g a.i./h
[2] = Table 9, 28 DAA, L-glufosinate 150, saflufenacil 30, 2,4 D 228 g a.i./h
[3] = Table 9, 35 DAA, L-glufosinate 150, saflufenacil 30, 2,4 D 228 g a.i./h
[4] = Table 6, 7 DAA, L-glufosinate 150, imazethapyr 75, carfentrazone 7.5 g a.i./h
[5] = Table 6, 14 DAA, L-glufosinate 150, imazethapyr 75, carfentrazone 7.5 g a.i./h
[6] = Table 6, 21 DAA, L-glufosinate 150, imazethapyr 75, carfentrazone 7.5 g a.i./h
[7] = Table 6, 28 DAA, L-glufosinate 150, imazethapyr 75, carfentrazone 7.5 g a.i./h
[8] = Table 6, 35 DAA, L-glufosinate 150, imazethapyr 75, carfentrazone 7.5 g a.i./h
[9] = Table 3, 14 DAA, L-glufosinate 150, imazethapyr 75, carfentrazone 7.5 g a.i./h
[10] = Table 3, 21 DAA, L-glufosinate 150, imazethapyr 75, carfentrazone 7.5 g a.i./h
[11] = Table 3, 28 DAA, L-glufosinate 150, imazethapyr 75, carfentrazone 7.5 g a.i./h
[12] = Table 3, 35 DAA, L-glufosinate 150, imazethapyr 75, carfentrazone 7.5 g a.i./h
[13] = Table 4, 3 DAA, L-glufosinate 150, imazethapyr 75, carfentrazone 7.5 g a.i./h
[14] = Table 4, 7 DAA, L-glufosinate 150, imazethapyr 75, carfentrazone 7.5 g a.i./h
[15] = Table 4, 14 DAA, L-glufosinate 150, imazethapyr 75, carfentrazone 7.5 g a.i./h
[16] = Table 4, 21 DAA, L-glufosinate 150, imazethapyr 75, carfentrazone 7.5 g a.i./h
[17] = Table 4, 28 DAA, L-glufosinate 150, imazethapyr 75, carfentrazone 7.5 g a.i./h
[18] = Table 4, 35 DAA, L-glufosinate 150, imazethapyr 75, carfentrazone 7.5 g a.i./h
[19] = Table 8, 7 DAA (head; title says 3 days), L-glufosinate 150, saflufenacil 30, triclopyr 228 g a.i./h
[20] = Table 7, 7 DAA, L-glufosinate 150, saflufenacil 30, triclopyr 228 g a.i./h

| Structure (SMILES) | Control % (weedy Glycine max; [1]) | Control % (weedy Glycine max; [2]) | Control % (weedy Glycine max; [3]) | Control % (Brachiaria decumbens; [4]) | Control % (Brachiaria decumbens; [5]) | Control % (Brachiaria decumbens; [6]) | Control % (Brachiaria decumbens; [7]) | Control % (Brachiaria decumbens; [8]) | Control % (weedy Glycine max; [9]) | Control % (weedy Glycine max; [10]) | Control % (weedy Glycine max; [11]) | Control % (weedy Glycine max; [12]) | Control % (Eleusine indica; [13]) | Control % (Eleusine indica; [14]) | Control % (Eleusine indica; [15]) | Control % (Eleusine indica; [16]) | Control % (Eleusine indica; [17]) | Control % (Eleusine indica; [18]) | Control % (Spermacoce latifolia; Table 5, 7 DAA) | Control % (Spermacoce latifolia; Table 5, 14 DAA) | other results |
| --- | --- | --- | --- | --- | --- | --- | --- | --- | --- | --- | --- | --- | --- | --- | --- | --- | --- | --- | --- | --- | --- |
| O=C(O)COc1ccc(Cl)cc1Cl [2,4 D, 2,4-D] | 49.3% | 43.8% | 41% |  |  |  |  |  |  |  |  |  |  |  |  |  |  |  |  |  |  |
| Cc1nn(-c2cc(CC(Cl)C(=O)O)c(Cl)cc2F)c(=O)n1C(F)F (stereo not shown) [Carfentrazone, carfentrazone] |  |  |  | 14% | 16.7% | 15% | 5% | 0% | 50.3% | 44.3% | 44.3% | 39.3% | 8.7% | 14% | 12.3% | 11% | 7.7% | 0% | 58.3% | 64.3% | Control % (Spermacoce latifolia; Table 5, 21 DAA): 64.3%; Control % (Spermacoce latifolia; Table 5, 28 DAA): 64.3%; Control % (Spermacoce latifolia; Table 5, 35 DAA): 63.3% |
| CCc1cnc(C2=NC(C)(C(C)C)C(=O)N2)c(C(=O)O)c1 (stereo not shown) [Imazethapyr, imazethapyr] |  |  |  | 10% | 10% | 15% | 10% | 5% | 10% | 20.0% | 20.0% | 15.0% | 3.7% | 8.3% | 12% | 12.7% | 12.7% | 10% | 13.3% | 30% | Control % (Spermacoce latifolia; Table 5, 21 DAA): 36.7%; Control % (Spermacoce latifolia; Table 5, 28 DAA): 30%; Control % (Spermacoce latifolia; Table 5, 35 DAA): 26.7% |
| CP(=O)(O)CC[C@H](N)C(=O)O [L-glufosinate, (S)-2-amino-4-(hydroxy(methyl)phosphonyl)butanoic acid] | 57.5% | 50.6% | 47.5% | 46% | 54.3% | 53.3% | 48.3% | 42% | 60% | 63.3% | 63.3% | 52.7% | 15% | 43.3% | 41.3% | 37.3% | 28.3% | 25.3% | 35% | 56.7% | Control % (Brachiaria decumbens; [19]): 66.2%; Control % (weedy Glycine max; [20]): 71.9%; Control % (Amaranthus viridus): 50%; Control % (Eleusine indica; Table 12, 3 DAA, L-glufosinate 150, imazapic and imazapyr 31.5 + 10.5 g a.i./h): 40%; Control % (Eleusine indica; Table 12, 7 DAA, L-glufosinate 150, imazapic and imazapyr 31.5 + 10.5 g a.i./h): 50%; Control % (Eleusine indica; Table 12, 14 DAA, L-glufosinate 150, imazapic and imazapyr 31.5 + 10.5 g a.i./h): 40%; Control % (Spermacoce latifolia; Table 5, 21 DAA): 56.7%; Control % (Spermacoce latifolia; Table 5, 28 DAA): 58.3%; Control % (Spermacoce latifolia; Table 5, 35 DAA): 58.3%; Control % (Borreria verticillata; Table 10, 3 DAA): 50%; Control % (Borreria verticillata; Table 10, 7 DAA): 80%; Control % (Borreria verticillata; Table 10, 14 DAA): 95%; Control % (Borreria verticillata; Table 10, 21 DAA): 90%; Control % (Borreria verticillata; Table 10, 28 DAA): 90%; Control % (Borreria verticillata; Table 10, 35 DAA): 85% |
| CC(C)N(C)S(=O)(=O)NC(=O)c1cc(-n2c(=O)cc(C(F)(F)F)n(C)c2=O)c(F)cc1Cl [Saflufenacil, saflufenacil] | 63.2% | 52.5% | 50.7% |  |  |  |  |  |  |  |  |  |  |  |  |  |  |  |  |  | Control % (Brachiaria decumbens; [19]): 30%; Control % (weedy Glycine max; [20]): 75.4% |
| O=C(O)COc1nc(Cl)c(Cl)cc1Cl [Triclopyr, triclopyr] |  |  |  |  |  |  |  |  |  |  |  |  |  |  |  |  |  |  |  |  | Control % (Brachiaria decumbens; [19]): 0%; Control % (weedy Glycine max; [20]): 67.9% |
